Experiment [1] relates to Aminopeptidase N. Description: Aminopeptidase N cleavage of test substrates (HPLC). Format: biochemical. The conditions noted are these: 1 mM test substrate, 0.02 U APN, 37° C., 25 minutes. On the procedure: Aminopeptidase N cleaves amino acids at the N-terminus of proteins and peptides attached to another amino acid. The final attachment in our test substrates consists of an amino acid linked to a hydrazide. The cleavage of this amino acid by aminopeptidases exposes the reactive hydrazide species. Our goal was to study the cleavage of amide bond between an amino acid and a hydrazide by aminopeptidase N. A stock solution of test substrates was prepared in 100% DMSO at a concentration of 25 mM. The stock soluton (6 μL) was added to buffer (50 mM Hepes/pH 7.5, 10 mM CaCl2, 0.1% Brij) for a final concentration of 1 mM test substrate in the reaction. To this reaction mix 0.02 U of the enzyme (APN) was added, the solution was mixed, and immediately 67.5 μL of the mix was transferred to HPLC vials containing 33.2 μL of acetic acid for t=0 minute measurement. The rest of the mix in the test tube was incubated at 37° C. for 25 minutes. At the 25 minutes time point 67.5 μL of the mix was transferred to the HPLC vial containing 33.2 μl of acetic acid for t=25 minute measurement. […] The peak areas were integrated and the substrate peak area was used to determine rate constant k in the following equation: K={(% hydrolyzed/100)*[S]}/[E]*[time] where • S=test substrate concentration in μmoles • E=aminopeptidase N concentration in units/ml • K=μmoles of substrate hydrolyzed/minute/unit enzyme
The procedures of Examples 63 and 64 were used to prepare these additional enamides. The ability of aminopeptidase-N (APN) to remove the terminal amino acid was determined by using the procedure described in Example 46.

Experiment [2] deals with THP-1 cells. Description: Lipid bilayer insertion / cell binding of test substrates. Format: cell-based, human. The conditions noted are these: live cell suspensions. On the procedure:
This assay was designed to study localization of test substrates in lipid bilayers of cells. THP-1 cell line a human monocytic cell line was used in this assay. THP-1 cells were washed with phosphate buffered saline (PBS) and 2×10^6 cells were used for each reaction in a 150 μL reaction volume. Test substrates were added to these cell suspensions to give a final concentration of 0.15 mM in the reaction. The reactions were incubated at 37° C. for 1 hour. The test compound in the supernatant was analyzed by HPLC and quantified. The level of compound in the supernatant in the presence and absence of cells was determined and the following ratio was generated: R=Level of compound in absence of cells/level of compound in the presence of cells
The ratio increases with increased binding to cells. A ratio of 1 denotes no binding to cells.

Experiment [3] concerns Aminopeptidase N. Description: Aminopeptidase N cleavage of test substrates (HPLC). Format: biochemical. To be noted: n = 2; for Rate, hydrolysis of N-terminal residue by APN (value in parenthesis): enzyme concentration […] 10^3 U; for Rate, hydrolysis of N-terminal residue by APN: enzyme concentration […] 10^4 U.

The structures appear in SMILES notation.

Consider `CC(C)C[C@H](N)C(=O)NNc1ccc(C(=O)NCCNC(=O)c2ccc(N/N=C/c3ccccc3S(=O)(=O)O)nc2)cc1` [Example 6, 2-{(1E)-2-[(5-{N-[2-({4-[((2S)-2-Amino-4-methylpentanoylamino)amino]phenyl}carbonylamino)ethyl]carbamoyl}(2-pyridyl))amino]-2-azavinyl}benzenesulfonic Acid], for which the “Rate of hydrolysis (min^−1, U^−1)” value in experiment [1] is on record as 0 μmoles μmoles (min^−1, U^−1). Same read-out and setting: with `CC(C)C[C@H](N)C(=O)NNC(=O)c1ccc(N/N=C\c2ccccc2S(=O)(=O)O)nc1` [Example 7, 2-[2-({5-[N-((2S)-2-Amino-4-methylpentanoylamino)carbamoyl](2-pyridyl)}amino)(1Z)-2-azavinyl]benzenesulfonic Acid] the figure was 1.2 μmoles μmoles (min^−1, U^−1); with `CC(C)C[C@H](N)C(=O)NNC(=O)c1ccc(CNC(=O)c2ccc(N/N=C/c3ccccc3S(=O)(=O)O)nc2)cc1` [Example 8, 2-[(1E)-2-({5-[N-({4-[N-((2S)-2-Amino-4-methylpentanoylamino)carbamoyl]phenyl}methyl)carbamoyl](2-pyridyl)}amino)-2-azavinyl]benzenesulfonic Acid], 0.6 μmoles μmoles (min^−1, U^−1); with `COc1ccc2cc(C(=O)NCCCCCC(=O)NNC(=O)[C@@H](N)CC(C)C)c(=O)oc2c1` [Example 9, N-((2S)-2-Amino-4-methylpentanoylamino)-6-[(7-methoxy-2-oxo(2H-chromen-3-yl))carbonylamino]hexanamide], 0.62 μmoles μmoles (min^−1, U^−1). As to `CC(C)C[C@H](N)C(=O)Nc1ccc(COC(=O)NNC(=O)CCCCCNC(=O)c2ccc(N/N=C/c3ccccc3S(=O)(=O)O)nc2)cc1` [Example 24, 2-((1E)-2-{[5-(N-{5-[N-({[4-((2S)-2-Smino-4-methylpentanoylamino)phenyl]methoxy}carbonylamino)carbamoyl]pentyl}carbamoyl)(2-pyridyl)]amino}-2-azavinyl)benzenesulfonic Acid], the “Rate of hydrolysis (min^−1, U^−1)” value in experiment [1] was 0.52 μmoles μmoles (min^−1, U^−1). Turning to `O=C(CCCCCCCc1ccc(O)cc1)NCCNC(=O)c1ccc(N/N=C/c2ccccc2S(=O)(=O)O)nc1` [Example 26, 2-((1E)-2-Aza-2-{[5-(N-{2-[8-(4-hydroxyphenyl)octanoylamino]ethyl}-carbamoyl)(2-pyridyl)]amino}vinyl)benzenesulfonic Acid], in experiment [2], the “association with cells (in words)” value is “will associate with cells”.

With `CC(=O)NCCCCCC/C=C/NC(=O)[C@@H](N)CC(C)C.O=CO` [Example 63, N-[(1E)-8-(Acetylamino)oct-1-enyl](2S)-2-amino-4-methylpentanamide, Formic Acid Salt], in experiment [3], the “Rate, hydrolysis of N-terminal residue by APN (value in parenthesis)” value is given as 0.167 mmol substrate · min^−1 · U enzym^−1 and the “Rate, hydrolysis of N-terminal residue by APN” value was 0.202 mmol substrate · min^−1 · U enzym^−1. The corresponding values for `CCC/C=C(\CCC)NC(=O)[C@H](C)NC(=O)[C@@H](N)CC(C)C` [Example 332] are 0.802 mmol substrate · min^−1 · U enzym^−1 and 1.89 mmol substrate · min^−1 · U enzym^−1. Consider `CCC/C=C(\CCC)NC(=O)[C@@H](N)CC(C)C` [Example 333], for which, in experiment [3], the “Rate, hydrolysis of N-terminal residue by APN (value in parenthesis)” value is listed as 0.209 mmol substrate · min^−1 · U enzym^−1 and the “Rate, hydrolysis of N-terminal residue by APN” value is on record as 0.264 mmol substrate · min^−1 · U enzym^−1.

Values taken from US20050106100A1, “Compounds containing matrix metalloproteinase substrates and methods of their use” (priority 2003, published 2005).
